The values that follow come from patent US20190216731A1, “PROCESS FOR PROVIDING PARTICLES WITH REDUCED ELECTROSTATIC CHARGES” (Chiesi Farmaceutici S.p.A., priority 2010, published 2019).

The nature of data set [1]: Dispersive surface energy by inverse gas chromatography (IGC). The data set is classed as physicochemical. As to conditions: IGC at 25° C., 0% RH, FIG. 1. The protocol: The surface energies were measured by inverse gas chromatography (IGC). All analyses were carried out using the SMS-iGC 2000 and the SMS-iGC v1.3 standard analysis suite and SMS-iGC v1.21 advanced analysis suite of macros. A flame ionization detector (FID) was used to determine the retention times. The samples were stored in a cold (˜5° C.), dry environment until run on the IGC. For all experiments, the powders were packed into a silanized glass column (300 mm long by 4 mm diameter) using the SMS Column Packing Accessory. All columns were analyzed 3 times sequentially to check for irreversible chemisorption effects and equilibrium after preconditioning.
In this study, the columns were pre-treated for 2 hours at 25° C. and 0% RH in a helium carrier gas to condition the sample. Then, the surface energy measurements were performed at 25° C. (3 times sequentially with a 2-hour conditioning between runs). All experiments were carried out at 10 sccm total flow rate of helium, and injection vapor concentration of 0.03 P/0 for all elutants.

For data set [2] the following is noted: cited from earlier work.

In turn, `O.OC[C@H]1O[C@@H](O[C@H]2[C@H](O)[C@@H](O)[C@@H](O)O[C@@H]2CO)[C@H](O)[C@@H](O)[C@H]1O` [Meggle D30 reference, α-lactose monohydrate] came in with a dispersive surface energy in data set [1] of 41.8 mJm^−2. Also, the “dispersive surface energy, values reported in the literature” value in data set [2] is recorded as 41 mJm^−2.

For the compound magnesium stearate, the dispersive surface energy in data set [1] is 42.1 mJm^−2. Besides, the “dispersive surface energy, values reported in the literature” value in data set [2] is reported as 41 mJm^−2.
